In US7015345B2, “Propionic acid derivatives” (Asahi Kasei Pharma Corporation, priority 2002, dated 2006):
Where two headings read alike, the source gives them in different places.

Key:
[1] = tested on: db/db mice; assay: Hypoglycemic action and triglyceride-decreasing action in db/db mice; type: in vivo; details: Mus musculus, 360 h; for inhibition in vivo at 3 mg/kg: 3 mg/kg oral once a day for 2 weeks; for inhibition in vivo at 1 mg/kg: 1 mg/kg oral once a day for 2 weeks
Experimental: Test for Measuring Hypoglycemic Action and Triglyceride-Decreasing Action in db/db Mice
Each of test compounds was administered once a day for 2 weeks to db/db mice genetically presenting pathological conditions of obesity, hyperglycemia, and hyperlipidemia. Blood was collected from the mice immediately before the start of administration of a test sample or a vehicle on the first day. Plasma glucose levels and triglyceride levels were measured, and the mice were divided into groups so that average glucose levels and triglyceride levels gave no significant value among the groups. All the test samples were suspended in a 0.5% methylcellulose (MC) solution and orally administered. For a vehicle-administered control group, a 0.5% MC solution was orally administered. Blood samples were collected from the mice on the 15th day, and plasma glucose levels and triglyceride levels were measured. A hypoglycemic rate and triglyceride-reducing rate were calculated by using the following equations.

[2] = tested on: hamsters fed with high cholesterol diet; assay: Total plasma cholesterol and non-HDL cholesterol reducing action in hamster fed high cholesterol diet; type: in vivo; details: Mesocricetus auratus, 192 h, hamsters on high cholesterol diet, 10 mg/kg oral once a day for one week, plasma on 8th day
Experimental: Test for Measuring Total Plasma Cholesterol Reducing Action and Non-HDL Cholesterol (VLDL Cholesterol+LDL Cholesterol) Reducing Action in Hamster
A test compound (10 mg/kg) was administered once a day for one week to hamsters fed with high cholesterol diet (CE-2 (Clea Japan)+1% cholesterol+10% coconut oil) for five days. The plasma cholesterol level and the plasma HDL cholesterol level were measured immediately before the start of the administration of the test sample or vehicle on the 1st day, and the hamsters were divided into groups so that the groups gave no significant value of initial levels of the both measurements. Each of the test samples was dissolved in a 0.5% methylcellulose (MC) solution and orally administered. A 0.5% methylcellulose (MC) solution was orally administered to the hamsters as a vehicle control group. A blood sample was collected on the 8th day, and the plasma cholesterol level and the plasma HDL cholesterol level were measured. The total cholesterol reducing rate was obtained by using the following equation. [formula]
Further, non-HDL cholesterol level (LDL cholesterol level+VLDL cholesterol level) was calculated as (Total cholesterol level−HDL cholesterol level), and the reducing rate thereof was calculated by using the following equation. [formula]

[3] = tested on: Zucker rats; assay: Liver triglyceride contents in Zucker rats; type: in vivo; details: Rattus norvegicus, 336 h, 1 mg/kg once a day for 2 weeks, read-out: Triglyceride reducing rate (%)
Experimental: Measurement of Liver Triglyceride Contents in Zucker Rats
To Zucker rats, a vehicle (0.5% MC), a compound of the present invention or fenofibrate (Sigma) was administered once a day for 2 weeks. The livers were isolated on the next day of the final administration, and amounts of triglyceride in the livers were determined. Triglyceride was extracted by adding 5 ml of a mixture of hexane and isopropanol (2:1, V/V) to 100 mg of liver, homogenizing the liver using Polytron homogenizer, then sufficiently stirring and centrifuging the homogenate at 2000 g for 10 minutes at room temperature. The amount of triglyceride in the solution layer was measured.

[4] = tested on: 3T3-L1 precursor adipocytes; assay: Uptake of glucose by adipocytes ([3H]-2-deoxy-glucose uptake); type: cell-based; details: Mus musculus, 100 nM compound, 4 to 5 days culture, 100 nM insulin stimulation, relative to 10 μM rosiglitazone taken as 100%, read-out: Amount of glucose uptake (%)
Experimental: (§1) Test for Uptake of Glucose By Adipocytes and Test for Triglyceride Accumulation in Adipocytes
According to the method of Mukherjee et al. (Mol. Endocrinol, 14, 1425–1433, 2000), a glucose uptake experiment was performed by using cultured cells. 3T3-L1 precursor adipocytes were cultured for 4 to 5 days in the presence of a test compound, and then stimulated with 100 nM insulin, and then the amount of [^3H]-2-deoxy-glucose (2DG) uptake by the cells was measured. The amount of glucose uptake provided after the treatment with 100 nM of each compound was measured, and represented as a relative value based on the amount of glucose uptake provided after the treatment with 10 μM rosiglitazone, which was taken as 100%.

[5] = tested on: 3T3-L1 precursor adipocytes; assay: Triglyceride accumulation in adipocytes; type: cell-based; details: Mus musculus, 100 nM compound, 4 to 5 days culture, relative to 10 μM rosiglitazone taken as 100%, read-out: Amount of accumulated triglyceride (%)
Experimental: as §1
Further, 3T3-L1 precursor adipocytes were cultured for 4 to 5 days in the presence of a test compound, and then the amount of triglyceride in the cells was measured according to the method of Shibata T et al. (Eur. J. Pharmacol., 364 (2–3), 211–219, 1999). The amount of accumulated triglyceride provided after the treatment with 100 nM of each compound was measured, and represented as a relative value based on the amount of accumulated triglyceride provided after the treatment with 10 μM rosiglitazone, which was taken as 100%.

[6] = plasma glucose on 15th day vs vehicle, read-out: Hypoglycemic rate (%)
[7] = plasma triglyceride on 15th day vs vehicle, read-out: Triglyceride reducing rate (%)
[8] = non-HDL = total cholesterol - HDL cholesterol, read-out: Non-HDL cholesterol reducing rate (%)
[9] = read-out: Total cholesterol reducing rate (%)

CCCCCCCN(CCOc1ccc(CC(OCC)C(=O)O)cc1)C(=O)OCC (centres unmarked) [Example 75, 2-ethoxy-3-{4-[2-(N-ethoxycarbonyl-N-heptylamino)ethoxy]phenyl}propionic acid]
inhibition in vivo at 3 mg/kg [1, 6]: 38%
inhibition in vivo at 3 mg/kg [1, 7]: 32%
inhibition in vivo at 10 mg/kg [2, 8]: 46%
inhibition in vivo at 10 mg/kg [2, 9]: 48%
inhibition in vivo at 1 mg/kg [3]: 32%
Emax at 0.1 µM [4]: 98%
Emax at 0.1 µM [5]: 98%

CCOC(Cc1ccc(OCCN(CCOc2ccccc2)C(=O)OC(C)C)cc1)C(=O)O (centres unmarked) [Example 92, 2-ethoxy-3-(4-{2-[N-isopropoxycarbonyl-N-(2-phenoxyethyl)amino]ethoxy}phenyl)propionic acid]
inhibition in vivo at 3 mg/kg [1, 6]: 4%
inhibition in vivo at 3 mg/kg [1, 7]: 12%
inhibition in vivo at 10 mg/kg [2, 8]: 10%
inhibition in vivo at 10 mg/kg [2, 9]: 8%
inhibition in vivo at 1 mg/kg [3]: 2%
Emax at 0.1 µM [4]: 90%
Emax at 0.1 µM [5]: 92%

CCCCCCCN(CCOc1ccc(CC(OCC)C(=O)OCC)cc1)C(=O)OCC(F)(F)F (centres unmarked) [Example 96, 2-ethoxy-3-(4-{2-[N-heptyl-N-(2,2,2-trifluoroethoxycarbonyl)amino]ethoxy}phenyl)propionic acid ethyl ester]
inhibition in vivo at 3 mg/kg [1, 6]: 38%
inhibition in vivo at 3 mg/kg [1, 7]: 31%
inhibition in vivo at 10 mg/kg [2, 8]: 23%
inhibition in vivo at 10 mg/kg [2, 9]: 24%
inhibition in vivo at 1 mg/kg [3]: 39%
Emax at 0.1 µM [4]: 85%
Emax at 0.1 µM [5]: 80%

CCCCOCCN(CCOc1ccc(CC(OCC)C(=O)O)cc1)C(=O)OCCC (centres unmarked) [Example 115, 3-(4-{2-[N-(2-butoxyethyl)-N-propoxycarbonylamino]ethoxy}phenyl)-2-ethoxypropionic acid]
inhibition in vivo at 3 mg/kg [1, 6]: 11%
inhibition in vivo at 3 mg/kg [1, 7]: 18%
inhibition in vivo at 10 mg/kg [2, 8]: 17%
inhibition in vivo at 10 mg/kg [2, 9]: 17%
inhibition in vivo at 1 mg/kg [3]: 42%
Emax at 0.1 µM [4]: 98%
Emax at 0.1 µM [5]: 95%

CCCCCCCN(CCOc1ccc(CC(OC(C)C)C(=O)O)cc1)C(=O)OC (centres unmarked) [Example 118, 3-{4-[2-(N-heptyl-N-methoxycarbonylamino)ethoxy]phenyl}-2-isopropoxypropionic acid]
inhibition in vivo at 1 mg/kg [1, 6]: 42%
inhibition in vivo at 1 mg/kg [1, 7]: 51%
inhibition in vivo at 10 mg/kg [2, 8]: 50%
inhibition in vivo at 10 mg/kg [2, 9]: 45%
inhibition in vivo at 1 mg/kg [3]: 47%
Emax at 0.1 µM [4]: 60%
Emax at 0.1 µM [5]: 55%

CCCCCCCN(CCOc1ccc(CC(OCCC)C(=O)O)cc1)C(=O)OC (centres unmarked) [Example 120, 3-{4-[2-(N-heptyl-N-methoxycarbonylamino)ethoxy]phenyl}-2-propoxypropionic acid]
inhibition in vivo at 1 mg/kg [1, 6]: 39%
inhibition in vivo at 1 mg/kg [1, 7]: 48%
inhibition in vivo at 10 mg/kg [2, 8]: 25%
inhibition in vivo at 10 mg/kg [2, 9]: 28%
inhibition in vivo at 1 mg/kg [3]: 28%
Emax at 0.1 µM [4]: 90%
Emax at 0.1 µM [5]: 88%

CCCCOCCN(CCOc1ccc(CC(OCC)C(=O)O)cc1)C(=O)OC(C)C (centres unmarked) [Example 122, 3-(4-{2-[N-(2-butoxyethyl)-N-isopropoxycarbonylamino]ethoxy}phenyl)-2-ethoxypropionic acid]
inhibition in vivo at 3 mg/kg [1, 6]: 14%
inhibition in vivo at 3 mg/kg [1, 7]: 21%
inhibition in vivo at 10 mg/kg [2, 8]: 9%
inhibition in vivo at 10 mg/kg [2, 9]: 10%
inhibition in vivo at 1 mg/kg [3]: 2%
Emax at 0.1 µM [4]: 92%
Emax at 0.1 µM [5]: 90%

CCCCOCCN(CCOc1ccc(CC(OCC)C(=O)O)cc1)C(=O)OCC(C)C (centres unmarked) [Example 123, 3-(4-{2-[N-(2-butoxyethyl)-N-isobutoxycarbonylamino]ethoxy}phenyl)-2-ethoxypropionic acid]
inhibition in vivo at 3 mg/kg [1, 6]: 8%
inhibition in vivo at 3 mg/kg [1, 7]: 32%
inhibition in vivo at 10 mg/kg [2, 8]: 25%
inhibition in vivo at 10 mg/kg [2, 9]: 25%
inhibition in vivo at 1 mg/kg [3]: 35%
Emax at 0.1 µM [4]: 99%
Emax at 0.1 µM [5]: 96%

CCCCCCCN(CCOc1ccc(CC(OC(C)C)C(=O)O)cc1)C(=O)OC(C)C (centres unmarked) [Example 125, 3-{4-[2-(N-heptyl-N-isopropoxycarbonylamino)ethoxy]phenyl}-2-isopropoxypropionic acid]
inhibition in vivo at 1 mg/kg [1, 6]: 42%
inhibition in vivo at 1 mg/kg [1, 7]: 64%
inhibition in vivo at 10 mg/kg [2, 8]: 48%
inhibition in vivo at 10 mg/kg [2, 9]: 45%
inhibition in vivo at 1 mg/kg [3]: 36%
Emax at 0.1 µM [4]: 97%
Emax at 0.1 µM [5]: 98%

CCCCOCCN(CCOc1ccc(CC(OC(C)C)C(=O)O)cc1)C(=O)OC(C)C (centres unmarked) [Example 130, 3-(4-{2-[N-(2-butoxyethyl)-N-isopropoxycarbonylamino]ethoxy}phenyl)-2-isopropoxypropionic acid]
inhibition in vivo at 1 mg/kg [1, 6]: 41%
inhibition in vivo at 1 mg/kg [1, 7]: 40%
inhibition in vivo at 10 mg/kg [2, 8]: 22%
inhibition in vivo at 10 mg/kg [2, 9]: 22%
inhibition in vivo at 1 mg/kg [3]: 32%
Emax at 0.1 µM [4]: 92%
Emax at 0.1 µM [5]: 90%

CCCCOCCN(CCOc1ccc(CC(OC(C)C)C(=O)O)cc1)C(=O)OCC(C)C (centres unmarked) [Example 132, 3-(4-{2-[N-(2-butoxyethyl)-N-isobutoxycarbonylamino]ethoxy}phenyl)-2-isopropoxypropionic acid]
inhibition in vivo at 1 mg/kg [1, 6]: 7%
inhibition in vivo at 1 mg/kg [1, 7]: 14%
inhibition in vivo at 10 mg/kg [2, 8]: 20%
inhibition in vivo at 10 mg/kg [2, 9]: 18%
inhibition in vivo at 1 mg/kg [3]: 39%
Emax at 0.1 µM [4]: 96%
Emax at 0.1 µM [5]: 97%
